According to patent publication US5637318A, “Dermatological agent for assisting the transport of oxygen in the skin” (Lancaster Group AG, priority 1992, dated 1997):
Read-outs that look alike come from different tables or passages of the source.

Tests used:
[1] = Critical solubility temperature (CST) in n-hexane; assay type: physicochemical; settings: represented by CST in n-hexane
Source text: The choice of fluorocarbons or mixtures thereof according to their lipid solubility (represented by their critical solubility temperature CST in n-hexane) permits, as a further important criterion, the regulation of the residence time in the tissue.

[2] = 37° C.; cited from earlier work
skin tissue [3] = assay: Penetration and residence of labelled encapsulated fluorocarbons in skin tissue, animal experiments
Source text: (§1) It was possible to determine the dependence of the penetration rate and the depth of penetration of the particle size of the aggregates experimentally by separate investigations in animal experiments using labelled encapsulated fluorocarbons. […] The choice of fluorocarbons or mixtures thereof according to their lipid solubility (represented by their critical solubility temperature CST in n-hexane) permits, as a further important criterion, the regulation of the residence time in the tissue.

skin tissue [4] = settings: in vivo
Source text: as §1

Row | SMILES | lipid solubility [1] | Vapour Pressure [2] [mm Hg] | residence time in the tissue / release from the tissue (skin tissue [3]) | residence time in the tissue / release from the tissue (skin tissue [4])
1 | FC(F)(F)C(F)(F)C(F)(F)C(F)(F)N(C(F)(F)C(F)(F)C(F)(F)C(F)(F)F)C(F)(F)C(F)(F)C(F)(F)C(F)(F)F [F-tributylamine] | poor lipid solubility | 1 | relatively large residence time | –
2 | FC(F)(F)C(F)(F)C(F)(F)C(F)(F)C1(F)OC(F)(F)C(F)(F)C1(F)F (centres unmarked) [Perfluorobutyl-tetrahydrofuran] | – | 51 | released correspondingly more rapidly from the tissue | –
3 | FC(F)(F)C(F)(F)C(F)(F)C(F)(F)C(F)(F)C(F)(F)OC(F)(F)C(F)(F)C(F)(F)C(F)(F)C(F)(F)C(F)(F)F [F-dihexyl ether] | – | 2 | – | –
4 | FC1(F)OC(F)(F)C(F)(F)N(C(F)(F)C2(F)C(F)(F)C(F)(F)C(F)(F)C(F)(F)C2(F)F)C1(F)F [F-cyclohexylmethyl-morpholine] | – | 4 | – | –
5 | FC(F)(F)C(F)(F)C(F)(F)C(F)(F)C(F)(F)C(F)(F)F [F-hexane] | – | 414 | – | –
6 | FC(F)(F)C(F)(F)C(F)(F)N(C(F)(F)C(F)(F)C(F)(F)F)C(F)(F)C(F)(F)C(F)(F)F [F-tripropylamine] | – | 18.5 | – | –
7 | FC1(F)C(F)(F)C(F)(F)C2(F)C(F)(F)C(F)(F)C(F)(F)C(F)(F)C2(F)C1(F)F (centres unmarked) [Perfluorodecalin] | – | 12.5 | – | released correspondingly more rapidly from the tissue
8 | FC(F)(F)C(F)(F)C(F)(F)C(F)(F)C=CC(F)(F)C(F)(F)C(F)(F)C(F)(F)F [bis-F(butyl)ethene] | – | 12.6 | – | –
9 | FC(F)(F)C(F)(F)C(F)(F)C(F)(F)C(F)(F)C(F)(F)C(F)(F)C(F)(F)Br [Perfluorooctyl bromide] | – | 14 | – | –
10 | FC(F)(F)C1(F)C(F)(F)C(F)(F)C(F)(F)C(F)(F)C1(F)F [F-methylcyclohexane] | – | 180 | – | –
